molecular target: human VR1 (Homo sapiens, UniProt Q8NER1); assay: Human VR1 antagonist assay (Ca2+ imaging); type: cell-based; details: intracellular Ca2+ imaging (fura-2) in cells expressing human VR1 receptors; stimulus (capsaicin or acid) not given
From the text: VR1 antagonistic activity can be determined by the Ca^2+ imaging assay using human VR1 highly expressing cells. The cells that highly express human VR1 receptors are obtainable from several different conventional methods. The one standard method is cloning from human Dorsal Root Ganglion (DRG) or kidney according to the methods such as described in the journal article; Nature, 389, pp 816-824, 1997. Alternatively VR1 receptors highly expressing human keratinocytes are also known and published in the journal article (Biochemical and Biophysical Research Communications, 291, pp 124-129, 2002). […] Furthermore, the method to up regulate human VR1 gene, which is usually a silent gene or don't produce detectable level of VR1 receptors, is also available to obtain propriety cells. Such genetic modification method was described in detail; Nat. Biotechnol., 19, pp 440-445, 2001.
The cells that express human VR1 receptors were maintained in culture flask at 37° C. in an environment containing 5% CO2 until use in the assay. The intracellular Ca^2+ imaging assay to determine VR1 antagonistic activities were done by following procedures.
The culture medium was removed from the flask and fura-2/AM fluorescent calcium indicator was added to the flask at a concentration of 5 μM in the medium. The flask was placed in CO2 incubator and incubated for 1 hour. Then the cells expressing the human VR1 receptors were detached from the flask follow by washing with phosphate buffer saline, PBS(−) and re-suspended in assay buffer. The 80 μl of aliquot of cell suspension (3.75×10^5 cells/ml) was added to the assay plate and the cells were spun down by centrifuge (950 rpm, 20° C., 3 minutes).
The compounds of the examples were tested in the Human VR1 antagonist assay described above.
The capsaicin-induced changes in the intracellular calcium concentration were monitored using FDSS 6000 (Hamamatsu Photonics, Japan), a fluorometric imaging system. The cell suspension in Krebs-Ringer HEPES (KRH) buffer (115 mM NaCl, 5.4 mM KCl, 1 mM MgSO4, 1.8 mM CaCl2, 11 mM D-Glucose, 25 mM HEPES, 0.96 mM Na2HPO4, pH 7.3) were pre-incubated with varying concentrations of the test compounds or KRH buffer (buffer control) for 15 minutes at room temperature under the dark condition. Then capsaicin solution, which gives 300 nM in assay mixture, was automatically added to the assay plate by the FDSS 6000.
The acid-induced changes in the intracellular calcium concentration were monitored using FDSS 6000 (Hamamatsu Photonics, Japan), a fluorometric imaging system. The cell suspension in resting buffer (HBSS supplemented with 10 mM HEPES, pH 7.4) were pre-incubated with varying concentrations of the test compounds or resting buffer (buffer control) for 15 minutes at room temperature under the dark condition. The cells were automatically added the stimulating solution (HBSS supplemented with MES, final assay buffer pH5.8) by the FDSS 6000.
The monitoring of the changes in the fluorescence signals (λex=340 nm/380 nm, λem=510-520 nm) was initiated at 1 minute prior to the addition of capsaicin solution or acidic buffer and continued for 5 minute.

Sequence of human VR1 (Q8NER1 whole entry): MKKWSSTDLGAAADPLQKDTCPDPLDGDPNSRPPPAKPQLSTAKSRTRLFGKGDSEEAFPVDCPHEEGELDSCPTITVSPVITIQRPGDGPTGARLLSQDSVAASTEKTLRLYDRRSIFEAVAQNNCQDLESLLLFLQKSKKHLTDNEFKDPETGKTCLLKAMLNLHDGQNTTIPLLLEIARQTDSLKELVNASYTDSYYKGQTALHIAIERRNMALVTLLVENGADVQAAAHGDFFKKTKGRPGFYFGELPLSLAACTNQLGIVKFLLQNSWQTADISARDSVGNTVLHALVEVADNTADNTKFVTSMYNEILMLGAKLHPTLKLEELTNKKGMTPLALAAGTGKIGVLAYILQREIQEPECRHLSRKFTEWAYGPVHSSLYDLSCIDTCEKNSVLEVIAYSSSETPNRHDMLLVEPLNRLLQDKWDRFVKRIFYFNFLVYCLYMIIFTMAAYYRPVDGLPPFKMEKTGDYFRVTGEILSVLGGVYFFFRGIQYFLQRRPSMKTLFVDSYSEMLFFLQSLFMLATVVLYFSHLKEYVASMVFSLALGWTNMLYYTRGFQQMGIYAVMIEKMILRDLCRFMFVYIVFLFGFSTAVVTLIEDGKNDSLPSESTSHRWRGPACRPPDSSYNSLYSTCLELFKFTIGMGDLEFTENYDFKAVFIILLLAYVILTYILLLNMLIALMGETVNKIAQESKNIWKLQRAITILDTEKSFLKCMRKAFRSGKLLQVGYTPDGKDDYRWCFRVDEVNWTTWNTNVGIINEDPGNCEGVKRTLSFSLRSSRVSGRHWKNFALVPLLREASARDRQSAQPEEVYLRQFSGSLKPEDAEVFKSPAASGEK

Row | IC50 | Structure (SMILES)
1 | 237 to 455 nM | Oc1cc2c(cc1O)CN(C(=S)NCCc1ccc(Cl)cc1)CCC2 [Capsazepine, reference compound]
2 | 93.5 nM | COc1cc(Cl)c([C@@H](C)NC(=O)c2ccc3cc(C(C)(C)C)ccc3c2)cc1C [Example A1, 6-tert-Butyl-N-[(1R)-1-(2-chloro-4-methoxy-5-methylphenyl)ethyl]-2-naphthamide]
3 | 34.2 nM | Cc1cc([C@@H](C)NC(=O)c2ccc3cc(C(C)(C)C)ccc3c2)c(Cl)cc1O [Example A2, 6-tert-Butyl-N-[(1R)-1-(2-chloro-4-hydroxy-5-methylphenyl)ethyl]-2-naphthamide]
4 | 590 nM | COc1cc(CNC(=O)c2ccc3cc(C(C)(C)C)ccc3n2)c(Cl)cc1O [Example B1]
5 | 667 nM | Cc1cc([C@@H](C)NC(=O)c2cnc3cc(C(F)(F)F)ccc3c2)c(Cl)cc1O [Example C2, N-[(1R)-1-(2-Chloro-4-hydroxy-5-methylphenyl)ethyl]-7-(trifluoromethyl)quinoline-3-carboxamide]
6 | 74.1 nM | COc1cc([C@@H](C)NC(=O)c2ccc3nc(C(C)(C)C)ccc3c2)c(Cl)cc1O [Example D1, 2-tert-Butyl-[(1R)-1-(2-chloro-4-hydroxy-5-methoxyphenyl)ethyl]quinoline-6-carboxamide]
7 | 176 nM | COc1cc(CNC(=O)c2ccc3nc(C(C)(C)C)ccc3c2)c(Cl)cc1O [Example D2, 2-tert-Butyl-N-(2-chloro-4-hydroxy-5-methoxybenzyl)quinoline-6-carboxamide]
8 | 403 nM | COc1cc(CNC(=O)c2ccc3nc(C(C)(C)C)ccc3c2)c(Br)cc1O [Example D3, N-(2-Bromo-4-hydroxy-5-methoxybenzyl)-2-tert-butylquinoline-6-carboxamide]
9 | 270 nM | COc1cc(Cl)c([C@@H](C)NC(=O)c2ccc3nc(C(C)(C)C)ccc3c2)cc1C [Example D4, 2-tert-Butyl-N-[(1R)-1-(2-chloro-4-methoxy-5-methylphenyl)ethyl]quinoline-6-carboxamide]
10 | 331 nM | Cc1cc([C@@H](C)NC(=O)c2ccc3nc(C(C)(C)C)ccc3c2)c(Cl)cc1O [Example D5, 2-tert-butyl-N-[(1R)-1-(2-chloro-4-hydroxy-5-methylphenyl)ethyl]5 quinoline-6-carboxamide]
11 | 31.9 nM | Cc1cc([C@H](C)NC(=O)c2ccc3nc(C(C)(C)C)ccc3c2)c(Cl)cc1O [Example D7, 2-tert-Butyl-N-[(1S)-1-(2-chloro-4-hydroxy-5-methylphenyl)ethyl]quinoline-6-carboxamide]
12 | 434 nM | C[C@@H](NC(=O)c1ccc2nc(C(C)(C)C)ccc2c1)c1ccc(CO)cc1 [Example D8, 2-tert-Butyl-N-{(1R)-1-[4-(hydroxymethyl)phenyl]ethyl}quinoline-6-carboxamide]
13 | 311 nM | Cc1cc(CNC(=O)c2ccc3nc(C(C)(C)C)ccc3c2)c(Cl)cc1O [Example D10, 2-tert-Butyl-N-(2-chloro-4-hydroxy-5-methylbenzyl)quinoline-6-carboxamide]
14 | 501 nM | Cc1cc(CNC(=O)c2ccc3nc(C(C)(C)C)ccc3c2)c(F)cc1O [Example D11, 2-tert-Butyl-N-(2-fluoro-4-hydroxy-5-methylbenzyl)quinoline-6-carboxamide]
15 | 181 nM | COc1cc(Cl)c([C@@H](C)NC(=O)c2ccc3nc(C(C)(C)C(F)(F)F)ccc3c2)cc1C [Example D12, N-[(1R)-1-(2-Chloro-4-methoxy-5-methylphenyl)ethyl]-2-(2,2,2-trifluoro-1,1-dimethylethyl)quinoline-6-carboxamide]
16 | 31.8 nM | Cc1cc([C@@H](C)NC(=O)c2ccc3nc(C(C)(C)C(F)(F)F)ccc3c2)c(Cl)cc1O [Example D13, N-[(1R)-1-(2-Chloro-4-hydroxy-5-methylphenyl)ethyl]-2-(2,2,2-trifluoro-1,1-dimethylethyl)quinoline-6-carboxamide]
17 | 65.5 nM | Cc1cc(C(C)NC(=O)c2ccc3nc(C(C)(C)C(F)(F)F)ccc3c2)c(F)cc1CO (stereo not drawn) [Example D14, N-{1-[2-Fluoro-4-(hydroxymethyl)-5-methylphenyl]ethyl}-2-(2,2,2-trifluoro-1,1-dimethylethyl)quinoline-6-carboxamide]
18 | 254 nM | COc1cc([C@@H](C)NC(=O)c2ccc3nc(C(C)(C)C)ccc3c2)ccc1O [Example D15, 2-tert-Butyl-N-[(1R)-1-(4-hydroxy-3-methoxyphenyl)ethyl]quinoline-6-carboxamide]

— US8158650B2, “Substituted phenylmethyl bicyclocarboxyamide compounds” (Pfizer Inc., priority 2006, dated 2012)
